45 compounds from patent US9199941B2, “Pyrazole indanyl carboxamides” (BAYER CROPSCIENCE AG, priority 2012, dated 2015) can be followed below.

“And” between values parts separate entries of the source, which are not always exact repeats. Equal values may be shown once. Read-outs that look alike come from different tables or passages of the source.

The nature of data set [1]: log P by HPLC on reversed phase columns (EEC directive 79/831 Annex V.A8). The class given is physicochemical.
Data set [2] concerns Uromyces appendiculatus. In words: In vivo preventive test on Uromyces appendiculatus (bean rust). Conditions: preventive spray, bean plants, grading 11 days after contamination. The procedure:
Bean plants (“Saxa” variety), sown in starter cups on a 50/50 peat soil-pozzolana substrate and grown at 24° C., are treated at the 2-leaf stage (9 cm height) by spraying with the active ingredient prepared as described above. Plants, used as controls, are treated with the mixture of acetone/tween/DMSO/water not containing the active material. After 24 hours, the plants are contaminated by spraying the leaves with an aqueous suspension of Uromyces appendiculatus spores (150 000 spores per ml). […] Grading (% of efficacy) is carried out 11 days after the contamination, in comparison with the control plants.

For data set [3], the system named is Puccinia recondita. Nature of the data set: In vivo preventive test on Puccinia recondita (brown rust on wheat). Conditions: preventive spray, wheat plants, grading 12 days after contamination. As for the experimental part:
Plants, used as controls, are treated with the mixture of acetone/tween/DMSO/water not containing the active material. After 24 hours, the plants are contaminated by spraying the leaves with an aqueous suspension of Puccinia […] spores (100 000 spores per ml). […] Grading (% of efficacy) is carried out 12 days after the contamination, in comparison with the control plants.

Data set [4] deals with Sphaerotheca fuliginea. Nature of the data set: In vivo preventive test on Sphaerotheca fuliginea (powdery mildew on cucurbits). Conditions: preventive spray, gherkin plants, grading 12 days after contamination. As for the experimental part:
Gherkin plants (“Vert petit de Paris” variety), sown in starter cups on a 50/50 peat soil-pozzolana substrate and grown at 24° C., are treated at the Z11 cotyledon stage by spraying with the active ingredient prepared as described above. Plants, used as controls, are treated with the mixture of acetone/tween/DMSO/water not containing the active material. After 24 hours, the plants are contaminated by spraying the cotyledons with an aqueous suspension of Sphaerotheca fuliginea spores (100 000 spores per ml). The spores are collected from infected plants. The contaminated gherkin plants are incubated at about 20° C. and at 70-80% relative humidity. Grading (% of efficacy) is carried out 12 days after the contamination, in comparison with the control plants.

Data set [5] concerns Septoria tritici. In words: In vivo preventive test on Septoria tritici (leaf spot on wheat). As to conditions: 500 ppm, preventive spray, wheat plants, grading 24 days after contamination. The procedure:
Wheat plants (“Scipion” variety), sown in starter cups on a 50/50 peat soil-pozzolana substrate and grown at 22° C., are treated at the 1-leaf stage (10 cm height) by spraying with the active ingredient prepared as described above. Plants, used as controls, are treated with the mixture of acetone/tween/DMSO/water not containing the active material. After 24 hours, the plants are contaminated by spraying the leaves with an aqueous suspension of cryopreserved Septoria tritici spores (500 000 spores per ml). […] Grading (% of efficacy) is carried out 24 days after the contamination, in comparison with the control plants.

Where [6] appears, read: Table 2, amines of formula (III-a), method [a]: LC-MS at pH 2.7, 0.1% formic acid in water / acetonitrile.
Setting [7] is: Table 1, compounds of formula (I), method [a]: LC-MS at pH 2.7, 0.1% formic acid in water / acetonitrile.

As for `CC1CC2(CC2(Cl)Cl)c2cccc(N)c21` (mixture of isomers) [Example III-a-1], the lipophilicity (logP) in data set [1] (setting [6]) is 3.04 and 2.94.
For the compound `CC(C)C1CCc2c(NC(=O)c3cn(C)nc3C(F)F)cccc21` (stereo not shown) [Example 2], in data set [1] (setting [7]), the log partition coefficient (logP) is 3.6[a]. Moreover, the Eff. % in data set [2] (500 ppm) is recorded as 100%; in data set [3] (500 ppm), 98%; in data set [4] (500 ppm), 94%.
As to `Cn1cc(C(=O)Nc2cccc3c2CCC32CC2(Cl)Cl)c(C(F)F)n1` (stereo not shown) [Example 5], the Eff. % is given as 71% in data set [5], 100% in data set [2] (500 ppm) and 100% in data set [4] (500 ppm). Further, the logP in data set [1] (setting [7]) was 3.33[a].
As to `CC1CC2(CC2)c2cccc(NC(=O)c3cn(C)nc3C(F)(F)F)c21` (stereo not shown) [Example 10], in data set [1] (setting [7]), the log partition coefficient (logP) was 3.35[a]. In addition, the results for the Eff. % in data set [2] (500 ppm) and in data set [3] (500 ppm) were 99% and 100%, respectively.
As to `Cc1nn(C)c(C)c1C(=O)Nc1cccc2c1CCC21CC1` [Example 13], in data set [1] (setting [7]), the lipophilicity (logP) is 2.57[a]. Also, the values for the Eff. % in data set [2] (500 ppm) and in data set [3] (500 ppm) were 100% and 89%, respectively.
With `Cc1nn(C)c(C)c1C(=O)Nc1cccc2c1C(C)CC2CC(C)C` (stereo not shown) [Example 14], the log partition coefficient (logP) in data set [1] (setting [7]) was 3.87[a]. Besides, the Eff. % in data set [2] (500 ppm) stood at 99%; in data set [3] (500 ppm) it was 98%.
In the case of `Cc1nn(C)c(F)c1C(=O)Nc1cccc2c1CCC21CC1` [Example 15], the Eff. % in data set [2] (500 ppm) is 100%; in data set [3] (500 ppm) it was 94%.
As to `Cc1nn(C)c(C)c1C(=O)Nc1cccc2c1C(C)CC2C(C)(C)C` (stereo not shown) [Example 16], the logP in data set [1] (setting [7]) was 4.13[a]. The Eff. % in data set [2] (500 ppm) was 100%; in data set [3] (500 ppm), 98%.
`CCCCON=C1CCc2c(NC(=O)c3cn(C)nc3C(F)F)cccc21` [Example 21]: the Eff. % in data set [5] was 70%. In data set [1] (setting [7]), the log partition coefficient (logP) is 3.59[a].
`Cc1nn(C)c(C)c1C(=O)Nc1cccc2c1C(C)CC21CC1` (stereo not shown) [Example 22, 1,3,5-trimethyl-N-(3′-methyl-2′,3′-dihydrospiro[cyclopropane-1,1′-inden]-4′-yl)-1H-pyrazole-4-carboxamide]: the chromatographic logP in data set [1] (pH 2.7) was found to be 2.7. Further, the figures for the Eff. % in data set [2] (500 ppm) and in data set [3] (500 ppm) were 100% and 81%, respectively.
As for `CON=C1CCc2c(NC(=O)c3cn(C)nc3C(F)F)cccc21` [Example 23], the log partition coefficient (logP) in data set [1] (setting [7]) is 2.59[a]. In data set [3] (500 ppm), this compound displayed an Eff. % of 94%.
With `Cc1nn(C)c(O)c1C(=O)Nc1cccc2c1CCC21CC1` [Example 26], the Eff. % in data set [5] came out at 71%. For the same compound, the logP in data set [1] (setting [7]) was 2.04[a].
Regarding `CON=C1CC(C)c2c(NC(=O)c3cn(C)nc3C(F)F)cccc21` (stereo not shown) [Example 31], the Eff. % in data set [5] came out at 79%; in data set [2] (500 ppm), 99%. Besides, the log partition coefficient (logP) in data set [1] (setting [7]) is 2.45[a].
Regarding `Cc1nn(C)c(F)c1C(=O)Nc1cccc2c1C(C)CC2CC(C)(C)C` (stereo not shown) [Example 35], in data set [1] (setting [7]), the log partition coefficient (logP) is 4.61[a]. In addition, the results for the Eff. % in data set [2] (500 ppm), in data set [3] (500 ppm) and in data set [4] (500 ppm) were 100%, 98% and 100%, respectively.
With `Cn1cc(C(=O)Nc2cccc3c2C(C)(C)CC3)c(C(F)F)n1` [Example 36], in data set [1] (setting [7]), the logP was 2.8[a].
With `Cn1cc(C(=O)Nc2cccc3c2CCC3O)c(C(F)F)n1` (stereo not shown) [Example 37], the logP in data set [1] (setting [7]) was 1.61[a].
Turning to `Cc1nn(C)c(C)c1C(=S)Nc1cccc2c1C(C)CC21CC1` (stereo not shown) [Example 39, 1,3,5-trimethyl-N-(3′-methyl-2′,3′-dihydrospiro[cyclopropane-1,1′-inden]-4′-yl)-1H-pyrazole-4-carbothioamide], the chromatographic logP in data set [1] (pH 2.7) was 3.06. Further, the Eff. % in data set [2] (500 ppm) turned out to be 100%; in data set [3] (500 ppm) it was 89%.
`Cc1nn(C)c(C)c1C(=S)Nc1cccc2c1C(C)CC2CC(C)C` (stereo not shown) [Example 40]: the lipophilicity (logP) in data set [1] (setting [7]) was 4.25[a]. Also, the values for the Eff. % in data set [2] (500 ppm) and in data set [3] (500 ppm) were 100% and 98%, respectively.
As for `Cc1nn(C)c(F)c1C(=S)Nc1cccc2c1C(C)CC2CC(C)(C)C` (stereo not shown) [Example 43], the lipophilicity (logP) in data set [1] (setting [7]) was 4.87[a]. Also, the Eff. % was found to be 100% in data set [2] (500 ppm), 98% in data set [3] (500 ppm) and 100% in data set [4] (500 ppm).
For `CC1CC2(CC2)c2cccc(NC(=O)c3c(C4CC4)nn(C)c3Cl)c21` (stereo not shown) [Example 45], the logP in data set [1] (setting [7]) was 4.04[a].
`Cc1nn(C)c(Cl)c1C(=O)Nc1cccc2c1C(C)CC21CC1` (stereo not shown) [Example 47]: in data set [1] (setting [7]), the lipophilicity (logP) is 3.44[a]. Also, the Eff. % in data set [2] (100 ppm) turned out to be 100%; in data set [3] (100 ppm), 95%.
As to `Cc1c(C(=O)Nc2cccc3c2C(C)CC32CC2)cnn1C` (stereo not shown) [Example 48], the lipophilicity (logP) in data set [1] (setting [7]) was 2.55[a]. The Eff. % in data set [2] (100 ppm) is 100%; in data set [3] (100 ppm), 98%; in data set [4] (100 ppm), 81%.
Consider `CC1CC2(CCCC2)c2cccc(NC(=O)c3cn(C)nc3C(F)F)c21` (stereo not shown) [Example 49], for which, in data set [1] (setting [7]), the log partition coefficient (logP) is 4.31[a]. In data set [3] (100 ppm), this compound showed an Eff. % of 89%.
Taken in the same sequence, the figures for `CC1CCc2c(NC(=O)c3cn(C)nc3C(F)F)cccc21` (stereo not shown) [Example 50] were 3.01[a] and 78%.
As to `CCc1nn(C)cc1C(=O)Nc1cccc2c1C(C)CC21CC1` (stereo not shown) [Example 51], in data set [1] (setting [7]), the logP was 2.99[a].
Same read-out and setting: under `CCc1c(C(=O)Nc2cccc3c2C(C)CC32CC2)cnn1C` (stereo not shown) [Example 54] stands 2.99[a].
Take `CC1CC2(CC2)c2cccc(NC(=O)c3c(C(F)(F)F)nn(C)c3F)c21` (stereo not shown) [Example 55]: in data set [1] (setting [7]), the logP was 3.72[a]. Besides, the Eff. % in data set [3] (100 ppm) is reported as 85%.
Regarding `CC(C)c1nn(C)cc1C(=O)Nc1cccc2c1C(C)CC21CC1` (stereo not shown) [Example 56], in data set [1] (setting [7]), the logP is 3.29[a].
Regarding `Nc1cccc2c1CCC21CC1` [Example III-a-2], the lipophilicity (logP) in data set [1] (setting [6]) was 1.37[a].
Same read-out and setting: under `CC1CC(C(C)C)c2cccc(N)c21` (stereo not shown) [Example III-a-11] stands 2.73[a].
`CC1CC(C(C)C)c2cccc(N)c21` (stereo not shown) [Example III-a-12]: the logP in data set [1] (setting [6]) is 2.86[a].
On the same count and under the same terms, under `CC(C)CC1CCc2c(N)cccc21` (stereo not shown) [Example III-a-14] stands 2.64[a].
Turning to `CC1CC2(CC2)c2cccc(N)c21` (stereo not shown) [Example III-a-16, 3′-methyl-2′,3′-dihydrospiro[cyclopropane-1,1′-inden]-4′-amine], the chromatographic logP in data set [1] (reversed phase HPLC columns, Table 2, amines of formula (III-a), method [a]: LC-MS at pH 2.7, 0.1% formic acid in water / acetonitrile, read-out: logP) turned out to be 1.93.
On to `CCC1(C)CCc2c(N)cccc21` (stereo not shown) [Example III-a-17], for which, in data set [1] (setting [6]), the lipophilicity (logP) was 1.88[a].
The same measure, in the same setting: the figure for `CCCON=C1CC(C)c2c(N)cccc21.Cl` (stereo not shown) [Example III-a-18] is 2.78[a]; for `CCON=C1CC(C)c2c(N)cccc21.Cl` (stereo not shown) [Example III-a-19] it is 2.26[a]; for `CC(C)(C)C1CCc2c(N)cccc21` (stereo not shown) [Example III-a-21] it is 2.4[a].
On the same count and under the same terms, under `CC1CC(CC(C)(C)C)c2cccc(N)c21` (stereo not shown) [Example III-a-22] stands 3.83[a]; under `CC(C)CC1CC(C)c2c(N)cccc21` (stereo not shown) [Example III-a-23], 3.42[a]; under `CCCON=C1CCc2c(N)cccc21.Cl` [III-a-7], 2.26[a].
Same read-out and setting: under `CCCCON=C1CCc2c(N)cccc21.Cl` [III-a-8] stands 2.86[a].
Turning to `CON=C1CCc2c(N)cccc21.Cl` [III-a-9], in data set [1] (setting [6]), the lipophilicity (logP) is 1.26[a].
Same read-out and setting: under `CCON=C1CCc2c(N)cccc21.Cl` [III-a-10] stands 1.75[a].
Same read-out and setting: under `CC1CC(C)c2c(N)cccc21` (stereo not shown) [III-a-15] stands 1.76[a].
Still for that read-out and setting: the figure for `CON=C1CC(C)c2c(N)cccc21.Cl` (stereo not shown) [III-a-20] is 1.76[a].

What is called logP is the decadic logarithm of the partition coefficient of the neutral form, usually between octanol and water. High values mean a more lipophilic compound, low ones a more hydrophilic compound.
